Our source for the IC50 values is BindingDB's records for doi:10.1016/j.bmcl.2016.02.067 (Pfizer, 2016).

What is called IC50 is the concentration that gives 50% inhibition.

A short description of test [1]: Inhibition of EGFR Del ex19/T790M double mutant in human PC9 cells assessed as suppression of cell proliferation.
The nature of test [2]: Inhibition of EGFR Del ex19 mutant in human HCC827 cells assessed as suppression of cell proliferation.
Test [3] in a line: Inhibition of EGFR Del ex19 mutant in human PC9 cells assessed as suppression of cell proliferation.
Test [4] can be described thus: Inhibition of EGFR L858R/T790M double mutant in human NCI-H1975 cells assessed as suppression of cell proliferation.
A short description of test [5]: Inhibition of wild type EGFR in human NCI-H1666 cells assessed as suppression of cell proliferation.

Take `C=CC(=O)N1CC[C@@H](Oc2nc(Nc3ccc(N4CCC(N5CCN(C)CC5)CC4)cc3)c(C(N)=O)nc2CC)C1` [US9085540, 54]: the IC50 was 8 nM in test [1]; 8 nM in test [2]; 8 nM in test [3]; 8 nM in test [4]; 230 nM in test [5].
